Measurements as given in ChEMBL document CHEMBL5465560, “Selectivity Literature for EUbOPEN Chemogenomic Library” (2024).
Values belong to the molecule of their own block, whether it stands above or below them.

Assays:
[1] = molecular target: SRSF protein kinase 3 (Homo sapiens) (UniProt Q9UPE1); test: Selectivity interaction (KinomeScan (DiscoverX)) EUB0000607a SRPK3; conditions: at 10 µM
[2] = molecular target: T1, Serine/threonine-protein kinase Nek3 (Homo sapiens) (UniProt P51956); test: Selectivity interaction (KinomeScan (DiscoverX)) EUB0001619a NEK3; conditions: at 1 µM
T1 sequence (whole entry): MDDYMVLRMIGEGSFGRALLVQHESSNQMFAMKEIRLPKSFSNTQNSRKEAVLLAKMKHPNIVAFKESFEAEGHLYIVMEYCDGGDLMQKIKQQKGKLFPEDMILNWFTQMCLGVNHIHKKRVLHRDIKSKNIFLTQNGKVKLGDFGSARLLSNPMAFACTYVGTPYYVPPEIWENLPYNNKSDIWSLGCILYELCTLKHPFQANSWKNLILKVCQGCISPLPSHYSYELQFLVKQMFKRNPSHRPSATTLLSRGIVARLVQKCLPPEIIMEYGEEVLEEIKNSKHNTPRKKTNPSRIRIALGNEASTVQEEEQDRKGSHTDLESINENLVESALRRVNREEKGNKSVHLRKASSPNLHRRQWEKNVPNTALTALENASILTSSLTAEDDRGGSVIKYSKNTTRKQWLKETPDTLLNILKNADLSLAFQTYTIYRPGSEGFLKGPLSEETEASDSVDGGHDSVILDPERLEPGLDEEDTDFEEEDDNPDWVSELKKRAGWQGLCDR

[3] = test system: Proto-oncogene tyrosine-protein kinase receptor Ret (Homo sapiens), P07949 [M918T]; test: (§1) Selectivity interaction (KinomeScan (DiscoverX)) EUB0000045b RET
Chain of Proto-oncogene tyrosine-protein kinase receptor Ret (Homo sapiens), P07949 [M918T] (P07949 whole entry M918T): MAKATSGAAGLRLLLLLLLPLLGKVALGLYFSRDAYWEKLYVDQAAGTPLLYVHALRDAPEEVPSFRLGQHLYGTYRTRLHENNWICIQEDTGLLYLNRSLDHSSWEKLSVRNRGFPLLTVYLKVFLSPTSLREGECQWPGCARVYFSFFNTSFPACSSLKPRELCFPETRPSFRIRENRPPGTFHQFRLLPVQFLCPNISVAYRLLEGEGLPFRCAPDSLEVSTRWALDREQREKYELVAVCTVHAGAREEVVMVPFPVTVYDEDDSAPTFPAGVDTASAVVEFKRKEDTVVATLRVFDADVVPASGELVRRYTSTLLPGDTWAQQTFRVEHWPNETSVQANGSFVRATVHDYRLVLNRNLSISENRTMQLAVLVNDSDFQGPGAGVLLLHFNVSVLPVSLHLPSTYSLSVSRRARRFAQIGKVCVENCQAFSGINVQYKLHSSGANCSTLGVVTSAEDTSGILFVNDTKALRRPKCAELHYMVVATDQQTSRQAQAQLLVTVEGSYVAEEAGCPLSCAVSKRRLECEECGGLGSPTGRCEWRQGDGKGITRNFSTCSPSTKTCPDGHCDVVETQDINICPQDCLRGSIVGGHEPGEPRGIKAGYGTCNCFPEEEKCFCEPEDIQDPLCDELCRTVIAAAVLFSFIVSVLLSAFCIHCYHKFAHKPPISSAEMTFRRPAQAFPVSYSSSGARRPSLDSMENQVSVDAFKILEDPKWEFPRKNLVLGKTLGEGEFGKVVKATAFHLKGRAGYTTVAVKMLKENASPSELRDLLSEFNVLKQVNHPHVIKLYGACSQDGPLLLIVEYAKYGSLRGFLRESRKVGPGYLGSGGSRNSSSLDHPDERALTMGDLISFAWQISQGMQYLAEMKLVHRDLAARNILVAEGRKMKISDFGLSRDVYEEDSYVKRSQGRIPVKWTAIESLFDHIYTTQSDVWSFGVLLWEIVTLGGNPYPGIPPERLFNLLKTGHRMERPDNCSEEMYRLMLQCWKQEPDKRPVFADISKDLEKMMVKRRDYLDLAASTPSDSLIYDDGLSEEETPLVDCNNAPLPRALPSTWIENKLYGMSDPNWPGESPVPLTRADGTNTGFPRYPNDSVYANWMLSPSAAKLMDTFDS

[4] = test system: Proto-oncogene tyrosine-protein kinase receptor Ret (Homo sapiens), P07949 [V804M]; test: as §1
Chain of Proto-oncogene tyrosine-protein kinase receptor Ret (Homo sapiens), P07949 [V804M] (P07949 whole entry V804M): as the sequence (P07949 whole entry M918T) above, with V804M, T918M counted along it

[5] = molecular target: Proto-oncogene tyrosine-protein kinase receptor Ret (Homo sapiens, UniProt P07949); test: as §1
Chain of Proto-oncogene tyrosine-protein kinase receptor Ret (P07949 whole entry): as the sequence (P07949 whole entry M918T) above, with T918M counted along it

[6] = molecular target: T2, Serine/threonine-protein kinase BRSK2 (Homo sapiens) (UniProt Q8IWQ3); conditions: at 10 µM
T2 sequence (whole entry): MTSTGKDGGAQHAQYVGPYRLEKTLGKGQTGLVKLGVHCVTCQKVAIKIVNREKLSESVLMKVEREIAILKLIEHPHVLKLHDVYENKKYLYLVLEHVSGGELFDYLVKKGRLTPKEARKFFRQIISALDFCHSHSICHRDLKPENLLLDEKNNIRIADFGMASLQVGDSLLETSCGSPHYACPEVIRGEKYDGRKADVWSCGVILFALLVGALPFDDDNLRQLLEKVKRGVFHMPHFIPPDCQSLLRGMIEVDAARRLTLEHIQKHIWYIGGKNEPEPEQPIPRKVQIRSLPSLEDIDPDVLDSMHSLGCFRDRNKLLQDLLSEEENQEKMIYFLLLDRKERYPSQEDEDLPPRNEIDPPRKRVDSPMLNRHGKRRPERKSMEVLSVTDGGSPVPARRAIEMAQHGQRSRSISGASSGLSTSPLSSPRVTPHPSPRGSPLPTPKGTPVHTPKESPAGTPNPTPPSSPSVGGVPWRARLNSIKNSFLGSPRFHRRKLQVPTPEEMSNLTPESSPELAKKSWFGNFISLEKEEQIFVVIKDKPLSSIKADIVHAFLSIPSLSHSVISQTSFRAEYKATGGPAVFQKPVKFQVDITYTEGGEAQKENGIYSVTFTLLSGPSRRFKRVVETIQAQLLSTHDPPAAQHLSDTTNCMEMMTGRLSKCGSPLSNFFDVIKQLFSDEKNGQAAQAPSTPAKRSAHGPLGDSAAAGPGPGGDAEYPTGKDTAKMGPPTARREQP

[7] = molecular target: T3, Interleukin-1 receptor-associated kinase 3 (Homo sapiens) (UniProt Q9Y616); test: Selectivity interaction (ActivX KiNativ screen (kinase selectivity in THP-1 cell lysates)) EUB0000639a IRAK3; assay type: subcellular; conditions: lysate
T3 sequence (whole entry): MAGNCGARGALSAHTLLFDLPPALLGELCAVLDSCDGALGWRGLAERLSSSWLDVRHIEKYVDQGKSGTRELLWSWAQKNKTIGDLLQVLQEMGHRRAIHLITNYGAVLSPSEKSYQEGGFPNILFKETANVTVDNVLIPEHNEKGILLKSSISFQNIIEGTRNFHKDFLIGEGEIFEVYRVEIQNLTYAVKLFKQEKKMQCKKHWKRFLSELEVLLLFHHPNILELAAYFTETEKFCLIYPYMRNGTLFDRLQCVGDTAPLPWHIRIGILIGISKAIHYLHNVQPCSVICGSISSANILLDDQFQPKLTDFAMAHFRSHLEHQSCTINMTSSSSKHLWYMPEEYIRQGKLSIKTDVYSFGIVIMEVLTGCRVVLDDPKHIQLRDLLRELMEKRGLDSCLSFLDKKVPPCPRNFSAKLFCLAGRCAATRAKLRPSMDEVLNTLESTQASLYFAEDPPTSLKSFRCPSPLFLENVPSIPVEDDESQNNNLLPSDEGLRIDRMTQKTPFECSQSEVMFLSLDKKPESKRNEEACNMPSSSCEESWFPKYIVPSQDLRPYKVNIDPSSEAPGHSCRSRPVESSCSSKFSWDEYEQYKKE

[8] = molecular target: T4, Mitogen-activated protein kinase kinase kinase 7 (Homo sapiens) (UniProt O43318); test: Selectivity interaction (Kinase panel (Invitrogen)) EUB0000639a MAP3K7; conditions: at 200 nM
T4 sequence (whole entry): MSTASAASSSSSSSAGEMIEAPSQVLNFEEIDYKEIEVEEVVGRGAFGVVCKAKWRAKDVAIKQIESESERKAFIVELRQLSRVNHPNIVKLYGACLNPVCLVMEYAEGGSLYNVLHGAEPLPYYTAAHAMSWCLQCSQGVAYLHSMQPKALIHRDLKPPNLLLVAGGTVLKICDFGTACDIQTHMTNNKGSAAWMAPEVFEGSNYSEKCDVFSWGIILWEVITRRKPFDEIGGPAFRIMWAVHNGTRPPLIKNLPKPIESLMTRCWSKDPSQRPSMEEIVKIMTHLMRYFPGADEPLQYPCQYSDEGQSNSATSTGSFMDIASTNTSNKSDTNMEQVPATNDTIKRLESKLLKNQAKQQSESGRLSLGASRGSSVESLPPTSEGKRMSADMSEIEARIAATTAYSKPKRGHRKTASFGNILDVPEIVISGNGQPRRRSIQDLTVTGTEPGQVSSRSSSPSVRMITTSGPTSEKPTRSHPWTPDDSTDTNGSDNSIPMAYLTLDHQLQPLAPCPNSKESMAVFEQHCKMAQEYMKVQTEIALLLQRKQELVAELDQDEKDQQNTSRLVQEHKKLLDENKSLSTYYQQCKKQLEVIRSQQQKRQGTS

[9] = molecular target: Ribosomal protein S6 kinase beta-1 (Homo sapiens, UniProt P23443); test: Selectivity interaction (ActivX KiNativ screen (kinase selectivity in THP-1 cell lysates)) EUB0000639a RPS6KB1; assay type: subcellular; conditions: lysate, at 5 µM
Chain of Ribosomal protein S6 kinase beta-1 (P23443 whole entry, looked up): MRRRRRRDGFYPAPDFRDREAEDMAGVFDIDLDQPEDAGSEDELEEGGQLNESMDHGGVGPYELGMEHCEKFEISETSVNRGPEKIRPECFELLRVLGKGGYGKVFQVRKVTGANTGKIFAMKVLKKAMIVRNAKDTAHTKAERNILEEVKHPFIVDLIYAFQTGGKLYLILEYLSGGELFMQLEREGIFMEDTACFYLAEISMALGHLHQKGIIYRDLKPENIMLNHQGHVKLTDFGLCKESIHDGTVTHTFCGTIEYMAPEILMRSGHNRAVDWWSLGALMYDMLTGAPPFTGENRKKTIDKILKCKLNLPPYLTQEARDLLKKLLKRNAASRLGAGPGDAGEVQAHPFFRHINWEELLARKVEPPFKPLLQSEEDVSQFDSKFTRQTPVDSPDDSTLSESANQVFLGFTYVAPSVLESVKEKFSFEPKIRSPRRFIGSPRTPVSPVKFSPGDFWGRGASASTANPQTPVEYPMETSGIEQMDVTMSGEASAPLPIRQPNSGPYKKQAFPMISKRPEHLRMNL

Chain of SRSF protein kinase 3 (Homo sapiens) (Q9UPE1 whole entry): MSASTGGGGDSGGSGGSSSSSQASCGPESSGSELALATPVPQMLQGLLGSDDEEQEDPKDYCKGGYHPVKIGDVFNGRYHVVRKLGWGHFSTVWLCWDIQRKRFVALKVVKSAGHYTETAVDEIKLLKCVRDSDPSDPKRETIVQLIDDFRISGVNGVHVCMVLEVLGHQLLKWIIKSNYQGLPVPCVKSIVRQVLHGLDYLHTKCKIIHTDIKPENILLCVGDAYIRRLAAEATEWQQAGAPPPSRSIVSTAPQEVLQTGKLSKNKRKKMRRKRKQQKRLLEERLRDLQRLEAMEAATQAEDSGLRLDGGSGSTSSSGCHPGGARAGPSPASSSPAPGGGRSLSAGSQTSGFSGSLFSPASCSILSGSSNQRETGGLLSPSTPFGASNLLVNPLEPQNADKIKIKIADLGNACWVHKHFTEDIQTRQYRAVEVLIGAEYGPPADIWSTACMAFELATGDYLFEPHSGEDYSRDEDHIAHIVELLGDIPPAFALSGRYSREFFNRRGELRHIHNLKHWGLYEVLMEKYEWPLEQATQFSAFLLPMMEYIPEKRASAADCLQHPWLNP

Structure (SMILES): CNC(=O)Nc1ccc(-c2nc(N3CC4CCC(C3)O4)c3cnn(C4CCC5(CC4)OCCO5)c3n2)cc1
- % of control [1]: 100%

Structure (SMILES): N#Cc1cccc(-c2c[nH]c3ncnc(N4CCOCC4)c23)c1
- % of control [2]: 100%

Structure (SMILES): C=CC(=O)Nc1cc(-n2c(=O)ccc3cnc4ccc(-c5ccc(NS(C)(=O)=O)cc5)cc4c32)ccc1C
- % of control ([3]; at 1 µM): 11%
- % of control ([3]; at 10 µM): 74%
- % of control ([4]; at 1 µM): 85%
- % of control ([4]; at 10 µM): 100%
- % of control ([5]; at 1 µM): 88%
- % of control ([5]; at 10 µM): 96%

Structure (SMILES): COCC(=O)NC/C=C/c1ccc2ncnc(Nc3ccc(Oc4ccc(C)nc4)c(C)c3)c2c1 [CP-724714]
- % of control [6]: 100%

- % of inhibition ([7]; at 0.01 µM): -3.6%
- % of inhibition ([7]; at 0.04 µM): 31.1%
- % of inhibition ([7]; at 0.2 µM): 72.5%
- % of inhibition ([7]; at 1 µM): 89.6%
- % of inhibition ([7]; at 5 µM): > 98%
- % of inhibition [8]: 8.31%
- % of inhibition [9]: 3.9%
Structure (SMILES): CC[C@@H]1[C@H](F)C(=O)N[C@@H]1COc1nccc2cc(C(N)=O)c(OC)cc12 [ZIMLOVISERTIB]
